Columns and labels:
Assay type in all cases: biochemical
VvGT14a [1] = target: T1, VvGT14a (Vitis vinifera, UniProt F6H0R6); settings: for Km: monoterpenols at constant UDP-glucose […], UDP-glucose at fixed geraniol 100 µM, Tris-HCl pH 8.5, 30 °C; for kcat: pH 8.5
VvGT14a [2] = target: T1, VvGT14a; assay: Enantioselectivity by chiral phase SPME-GC-MS after hydrolysis of the formed glucoside; settings: racemic substrate, prolonged incubation (24 h), aglycone liberated by hydrolysis
Protocol: (§1) To determine the enantioselectivity of VvGT14 and VvGT15 the enantiomeric ratio of glucosidically bound citronellol and linalool was determined by enantioselective GC-MS. Following the incubation, residual citronellol and linalool were completely removed by extraction with dichloromethane. Citronellyl ß-D-glucoside which remained in the aqueous phase was hydrolyzed by HCl (2 mL, 0.1 M, pH 1) for one hour at 100 °C to release citronellol (Skouroumounis and Sefton, 2000). In case of linalyl ß-D-glucoside an enzymatic hydrolysis (AR 2000, citric acid buffer pH 4, 24 h) was applied due to the instability of linalool in acid solutions (Williams et al., 1982). […] After hydrolysis, citronellol and linalool were analyzed by SPME-GC-MS as described above.
(§2) GC-MS analysis was performed with a Varian GC-450 coupled to a Varian MS-240 ion-trap employing a Phenomenex Zebron ZB-WAXplus column (30 m x 0.25 mm x 0.25 µm, Aschaffenburg, Germany). Helium flow rate was 1 mL/min. The analysis was carried out in split mode (liquid injections) or splitless mode (SPME measurements) with 220 °C injector temperature. EI (electron impact ionization)-MS spectra were recorded from m/z 40 to 300 (ionization energy 70 eV; trap temperature 170 °C). The oven temperature program was 60 °C (3 min), 10 °C/min up to 250 °C (5 min). In case of SPME measurements, liberated aglycones were isolated for 10 min at 60°C using a fiber coated with a 85 µm film of polyacrylate (SUPELCO, Bellefonte, USA). After extraction the SPME fiber was desorbed for 10 min at 250°C in the injection port of the GC-MS system and the column oven program was carried out as described above. Enantioselective GC-MS analysis was performed with a Varian GC-450 coupled to a Varian MS-240 ion-trap. The column was a DiAcß (heptakis-(2,3-di-O-acetyl-6-O-tert.-butyldimethylsilyl)-ß-cyclodextrin), 26 m x 0.32 mm i.d. with a 0.1 µm film. […] GC-MS measurements were recorded in full scan mode. Selected ion monitoring (SIM) mode was used for quantification.

VvGT14a [3] = target: T1, VvGT14a; assay: Substrate screening, radiochemical activity assay with UDP-[14C]glucose; settings: for conversion of putative substrate (in words): substrate screening, Figure 3
Protocol: (§3) In the initial screening, each reaction mixture (200 µL in total) contained Tris-HCl buffer (100 mM, pH 8, 10 mM 2-mercaptoethanol), 37 pmol UDP-[^14C]glucose (0.01 µCi, Biotrend, Köln, Germany), substrate (50 µL of a 1 mg/mL stock solution) and purified protein (0.5-0.8 µg/µL). The reaction mixture was incubated at 30 °C for 18.5 hours. The assays were stopped by adding 1 µL 24% trichloroacetic acid and extracted with 500 µL water-saturated 1-butanol. The organic phase was mixed with 2 mL Pro Flow P+ cocktail (Meridian Biotechnologies Ltd., Epsom, UK) and radioactivity was determined by liquid scintillation counting (LSC, Tri-Carb 2800TR, Perkin Elmer, Waltham MA, USA). Additionally, negative controls without substrate were performed.
(§4) After determining the optimal conditions for the best substrate of each gene, the substrate screening was repeated under these conditions.
(§5) The alleles of VvGT14a-c, 15a-c and 16 were isolated from V. vinifera cultivars and cloned in the expression vector pGEX-4T-1. The recombinant proteins were expressed with an N-terminal GST-tag, affinity purified and verified by SDS-PAGE and Western Blot using GST-specific antibody. Enzyme activity studies were performed with UDP-[^14C]glucose and various putative substrates (terpenols, flavonoids and different mono-alcohols) that are known to be glycosidically bound and present in grapes (Gunata et al., 1988).

VvGT14a [4] = target: T1, VvGT14a; assay: Activity based profiling using a physiologic aglycone library (radio-TLC, GC-MS); settings: Figure 7
Protocol: For the preparation of aglycone extracts 50 g (fresh weight) grape skins or 4 g (fresh weight) inflorescences of Gewurztraminer Gm 11-18 were ground to a fine powder in liquid nitrogen. The isolation of glycosides was carried out as described above (see metabolite analysis). The methanolic fraction, which was obtained after SPE, was enzymatically hydrolysed. Therefore, the dried sample was dissolved in citric-acid buffer (0.1 M, pH 4), 50 mg AR 2000 (an enzyme preparation with glucosidase activity prepared from Aspergillus niger; DSM Food Specialties Beverage Ingredients, Delft, Netherlands) was added and incubated for 24 h with exclusion of light. The liberated aglycones were extracted by 20 mL methyl-tert-butyl ether and the organic phase was reduced to 1000µL using a gentle stream of nitrogen.
Aliquots of this aglycone extract were incubated with UDP-glucose and various VvGT-enzymes. Optimum conditions at 30 °C for 24 hours were applied. Each solution contained 100 µL purified enzyme, 100-150 µL Tris-HCl buffer (100 mM, pH7.5 or 8.5, 10 mM 2-mercaptoethanol), 37 pmol UDP-[^14C]glucose (0.01 µCi) and 50-100 µL extract (dissolved in methyl-tert-butylether). The buffer was mixed with the extract and the organic solvent was gently vaporized with nitrogen. The missing volume was adjusted with buffer before the enzyme was added. The reaction was stopped by adding 1 µL 24% trichloroacetic acid and extracted with 500 µL ethyl acetate. After termination of the reaction free aglycones, which were not converted by VvGT14 and VvGT15, were measured via SPME-(Solid Phase Microextraction)-GC-MS. These residual, free aglycones were completely removed by extraction with dichloromethane. Enzymatically formed glucosides were extracted by ethyl acetate, which was removed under nitrogen. The residue was dissolved in methanol and analyzed by LC-MS to detect the generated monoterpenol glucosides. Enzymatic hydrolysis of the glucosides was performed using AR 2000 and 2 mL citric-acid-buffer. After hydrolysis, a 100 µL aliquot was used to detect volatile aglycones via SPME-GC-MS. The remaining solution was extracted with methyl-tert-butyl ether and reduced under nitrogen to approximately 200 µL. One µL were measured by GC-MS via liquid injection.
Assays containing UDP-[^14C]glucose and aglycone libraries or substrates were performed as described above and subsequently extracted with 500 µL ethyl acetate. The organic solvent was vaporized and the pellet was re-suspended in 10 µL methanol and was applied on Silica Gel 60 F254 plates (Merck, Darmstadt, Germany). The dried plates were developed in a solvent system chloroform:acetic acid:water (50/45/5, v:v:v). Plates were dried and analyzed by digital autoradiograph (digital autoradiograph, EG&G Berthold, Wildbad, Germany).
An aglycone library of the two tissues was obtained by enzymatic hydrolysis of the glycosides followed by liquid-liquid extraction of the released alcohols and acids. […] The formed glycosides were separated by thin layer chromatography (TLC) and visualized by radiodetection whereas identification could be achieved by LC-MS and NMR analysis and, after hydrolysis, by GC-MS and LC-MS (Figure 6).

VvGT15a [5] = target: T2, VvGT15a (Vitis vinifera, UniProt F6GUW0); assay: Enantioselectivity by chiral phase SPME-GC-MS after hydrolysis of the formed glucoside; settings: racemic substrate, prolonged incubation (24 h), aglycone liberated by acid hydrolysis
T2 sequence (F6GUW0 entry or part of it): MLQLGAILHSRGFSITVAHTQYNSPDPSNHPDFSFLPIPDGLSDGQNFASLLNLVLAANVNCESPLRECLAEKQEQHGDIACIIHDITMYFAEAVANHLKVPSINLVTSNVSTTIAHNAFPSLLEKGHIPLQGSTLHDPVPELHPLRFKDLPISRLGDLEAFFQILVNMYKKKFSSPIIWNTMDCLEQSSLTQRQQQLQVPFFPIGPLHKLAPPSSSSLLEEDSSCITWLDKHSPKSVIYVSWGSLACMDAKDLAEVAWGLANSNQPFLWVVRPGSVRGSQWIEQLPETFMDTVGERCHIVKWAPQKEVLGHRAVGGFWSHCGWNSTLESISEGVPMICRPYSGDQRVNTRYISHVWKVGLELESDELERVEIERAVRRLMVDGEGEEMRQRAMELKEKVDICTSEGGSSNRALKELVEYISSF
Protocol: as §1, §2

VvGT15c = VvGT15c (Vitis vinifera, UniProt F6GUW0); assay: Substrate screening, radiochemical activity assay with UDP-[14C]glucose
Chain of VvGT15c (F6GUW0 entry or part of it): as above
Protocol: as §3, §4, §5

VvGT15a [6] = target: T2, VvGT15a; assay: as above; settings: substrate screening, Figure 3
Protocol: as §3, §4, §5

VvGT16 = VvGT16 (Vitis vinifera, UniProt F6HTJ4); assay: as above; settings: substrate screening, Figure 3
Chain of VvGT16 (F6HTJ4 entry or part of it): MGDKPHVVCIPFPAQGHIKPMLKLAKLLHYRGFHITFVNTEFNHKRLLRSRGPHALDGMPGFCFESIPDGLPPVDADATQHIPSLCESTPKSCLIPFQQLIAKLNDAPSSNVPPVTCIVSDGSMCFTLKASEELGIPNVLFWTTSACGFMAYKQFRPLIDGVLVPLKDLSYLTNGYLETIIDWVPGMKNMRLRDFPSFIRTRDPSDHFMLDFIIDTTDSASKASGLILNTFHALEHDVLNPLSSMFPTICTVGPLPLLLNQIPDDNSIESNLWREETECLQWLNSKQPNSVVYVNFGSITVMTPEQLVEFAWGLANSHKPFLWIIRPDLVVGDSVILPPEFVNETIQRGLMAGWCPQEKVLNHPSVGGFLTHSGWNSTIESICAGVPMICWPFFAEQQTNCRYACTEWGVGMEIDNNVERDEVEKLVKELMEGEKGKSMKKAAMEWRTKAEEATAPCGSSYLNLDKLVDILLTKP
Protocol: as §3, §4, §5

VvGT15b = VvGT15b (Vitis vinifera, UniProt F6GUW0); assay: as above; settings: substrate screening, Figure 3
Chain of VvGT15b (F6GUW0 entry or part of it): as the sequence (F6GUW0 entry or part of it) above
Protocol: as §3, §4, §5

[7] = citronellol enantiomers, Figure 12, highest level of extractable radioactivity = 100 %

T1 sequence (F6H0R6 entry or part of it): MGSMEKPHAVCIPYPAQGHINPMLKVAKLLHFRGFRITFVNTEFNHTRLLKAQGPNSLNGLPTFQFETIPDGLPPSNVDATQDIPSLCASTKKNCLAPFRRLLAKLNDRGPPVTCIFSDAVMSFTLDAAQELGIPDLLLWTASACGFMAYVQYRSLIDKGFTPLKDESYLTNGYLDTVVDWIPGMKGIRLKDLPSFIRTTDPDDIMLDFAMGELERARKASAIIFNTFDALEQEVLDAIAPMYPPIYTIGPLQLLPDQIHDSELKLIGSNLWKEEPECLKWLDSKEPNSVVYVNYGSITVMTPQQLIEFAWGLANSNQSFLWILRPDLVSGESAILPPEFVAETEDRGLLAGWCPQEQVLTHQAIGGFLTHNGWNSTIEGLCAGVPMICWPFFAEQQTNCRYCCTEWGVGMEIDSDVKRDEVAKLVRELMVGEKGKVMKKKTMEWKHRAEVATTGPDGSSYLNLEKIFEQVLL

C=CC(C)(O)CCC=C(C)C (racemic) [linalool (rac), (R,S)-3,7-dimethyl-1,6-octadien-3-ol]
Km (VvGT14a [1]): 47 ± 0.1 µM | kcat (VvGT14a [1]): 0.0003 s⁻¹ | enantiomeric preference (in words) (VvGT14a [2]): slight enrichment of the R-enantiomer | conversion of putative substrate (in words) (VvGT14a [3]): catalytic activity | aglycone liberated by enzymatic hydrolysis of the glucosides formed from the grape skin aglycone library (in words) (VvGT14a [4]): remarkable quantities

CC(C)=CCCC(C)CCO (racemic) [citronellol (rac), (R,S)-3,7-dimethyl-6-octen-1-ol]
Km (VvGT14a [1]): 9 ± 0.3 µM | kcat (VvGT14a [1]): 0.02 s⁻¹ | enantiomeric preference (in words) (VvGT14a [2]): no enantio-discrimination | enantiomeric preference (in words) (VvGT15a [5]): no enantio-discrimination | relative specific activity (VvGT15c; [7]): 100% | conversion of putative substrate (in words) (VvGT15c; substrate screening, Figure 3): glucosylated primarily | relative specific activity (VvGT14a [3]; [7]): 100% | conversion of putative substrate (in words) (VvGT14a [3]): preferred | conversion of putative substrate (in words) (VvGT15a [6]): glucosylated primarily | conversion of putative substrate (in words) (VvGT16): transformed | conversion of putative substrate (in words) (VvGT15b): glucosylated primarily | aglycone liberated by enzymatic hydrolysis of the glucosides formed from the grape skin aglycone library (in words) (VvGT14a [4]): remarkable quantities
